Like-named read-outs stand apart in the source and are kept apart here.
Key:
recombinant human LDHA [1] = biological target: T1, recombinant human LDHA (Homo sapiens, UniProt P00338); parameters: method as in PMID 36113265; conditions: compounds evaluated previously, cited from earlier work; for IC50: included for comparative purposes, read-out: hLDHA IC50; for Selectivity Rate (IC50 hLDHB/hLDHA): ratio IC50 hLDHB / IC50 hLDHA
T1 construct: purchased Abcam

recombinant human LDHB [2] = biological target: T2, recombinant human LDHB (Homo sapiens, UniProt P07195); parameters: method as in PMID 36113265; conditions: compounds evaluated previously, included for comparative purposes; read-out: hLDHB IC50; cited from earlier work
T2 construct: purchased Abcam

recombinant human LDHB [3] = biological target: T2, recombinant human LDHB; assay: hLDHB enzymatic activity assay (same fluorimetric protocol); assay type: biochemical; conditions: mean ± SD of n = 3 replicates
Experimental: (§1) Briefly, the decrease in the coenzyme β-NADH fluorescence (λemission = 460 nm) was measured for 10 min, at different concentration of inhibitors, and its slope was compared with the one obtained when there were not inhibitors added (100% enzymatic activity).
The ability of the synthesized compounds to inhibit the hLDHB enzyme was measured using recombinant human LDHB (95%, specific activity >300 units/mg and concentration of 1.0 mg/mL, Abcam, Cambridge, UK) following the same fluorimetric protocol described in Section 3.4.

recombinant human LDHA [4] = biological target: T1, recombinant human LDHA; assay: hLDHA enzymatic activity assay (kinetic spectrofluorimetric, β-NADH fluorescence decrease); assay type: biochemical; conditions: for IC50: mean ± SD of n = 3 replicates
Experimental: as §1
The enzymatic assay was conducted on 96-well microplates and the decrease in the β-NADH fluorescence (λexcitation = 340 nm; λemission = 460 nm) was detected in a TECAN Infinite 200 Pro M Plex fluorescent plate reader (Tecan Instrument, Inc.) at 28 °C. The activity was determined according to our previously described protocol. The final volume in each well was set to 200 µL using 100 mM potassium phosphate buffer, 0.041 units/mL LDHA, 155 µM β-NADH, 1 mM pyruvate (saturated conditions), and DMSO solutions (5%, v/v) of pure compounds at concentrations in the range of 1–600 µM. The addition of pyruvate allowed the beginning of the reaction and fluorescence was registered every 60 s during 10 min. A lineal time interval was selected to calculate the slope at every single concentration. […] The slope obtained at each concentration was compared to the one obtained for the 100% enzymatic activity control to determine the corresponding enzymatic activity. A nonlinear regression analysis in GraphPad Prism version 9.00 for Windows (GraphPad Software, La Jolla, CA, USA) was used for dose response curve, fitting of logarithm of inhibitor concentration vs. normalized enzymatic activity, to calculate IC50 values (Supplementary Material section). All measurements were made in triplicate and data were expressed as the mean ± SD.

[5] = supplementary dose response curves, µM only on the axis label, read-out: IC50 (hLDHB inhibition curve)

T2 sequence (P07195 whole entry): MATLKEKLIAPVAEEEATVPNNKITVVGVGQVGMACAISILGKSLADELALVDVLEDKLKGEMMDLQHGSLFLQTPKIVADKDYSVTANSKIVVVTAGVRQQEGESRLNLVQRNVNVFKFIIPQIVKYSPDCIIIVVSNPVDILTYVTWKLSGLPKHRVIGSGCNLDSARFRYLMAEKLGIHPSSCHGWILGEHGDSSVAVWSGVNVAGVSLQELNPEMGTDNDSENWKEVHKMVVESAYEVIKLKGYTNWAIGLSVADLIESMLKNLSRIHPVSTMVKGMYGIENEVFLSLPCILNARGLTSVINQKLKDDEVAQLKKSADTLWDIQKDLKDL

O=[N+]([O-])c1ccc2c(c1)C1CC(c3ccc(O)c(O)c3)(O2)Oc2cc(O)cc(O)c21 (racemic) [(±)-2]
IC50 (recombinant human LDHA [1]): 9.7 ± 1.1 µM
Selectivity Rate (IC50 hLDHB/hLDHA) (recombinant human LDHA [1]): 3.0
IC50 (recombinant human LDHB [2]): 28.6 ± 1.9 µM

Oc1ccc(C23CC(c4ccccc4O2)c2c(O)cc(O)cc2O3)cc1 (racemic) [(±)-4]
IC50 (recombinant human LDHB [3]; [5]): 45.9 ± 1.5 µM
IC50 (recombinant human LDHA [1]): 60 ± 4.7 µM
Selectivity Rate (IC50 hLDHB/hLDHA) (recombinant human LDHA [1]): 0.8

O=[N+]([O-])c1ccc2c(c1)C1CC(c3ccc(O)cc3)(O2)Oc2cc(O)cc(O)c21 (racemic) [(±)-5]
IC50 (recombinant human LDHA [1]): 24.4 ± 2.7 µM
Selectivity Rate (IC50 hLDHB/hLDHA) (recombinant human LDHA [1]): 2.9
IC50 (recombinant human LDHB [2]): 69.7 ± 4.7 µM

Oc1cc(O)c2c(c1)OC1(c3ccc(O)c(O)c3)CC2c2cc(Cl)ccc2O1 (racemic) [(±)-3]
IC50 (recombinant human LDHA [1]): 15.7 ± 2.7 µM
Selectivity Rate (IC50 hLDHB/hLDHA) (recombinant human LDHA [1]): 2.5
IC50 (recombinant human LDHB [2]): 39.7 ± 2.8 µM

Oc1ccc(C23CC(c4cc(Cl)ccc4O2)c2c(O)cc(O)cc2O3)cc1 (racemic) [(±)-6]
IC50 (recombinant human LDHA [1]): 26.7 ± 0.8 µM
Selectivity Rate (IC50 hLDHB/hLDHA) (recombinant human LDHA [1]): 3.2
IC50 (recombinant human LDHB [2]): 85.5 ± 2.5 µM

COc1ccc(C23CC(C4=C(CC(c5ccc(Cl)cc5)OC4=O)O2)c2cc(Cl)ccc2O3)cc1OC (racemic) [(±)-69a, 2-(3′,4′-Dimethoxyphenyl)-6-chlorochromane-(4→3″, 2→O-4″)-6″-(4‴-chlorophenyl)-4″-hydroxy-5″,6″-dihydro-2H-pyran-2″-one]
IC50 (recombinant human LDHB [3]; read-out: hLDHB IC50): 141 ± 2.5 µM
melting point: 172 to 175 °C
IC50 (recombinant human LDHA [4]; 1 mM pyruvate, 155 µM β-NADH, pH 7.3, 28 °C, read-out: hLDHA IC50): 20 ± 0.6 µM
Selectivity Rate (IC50 hLDHB/hLDHA) (recombinant human LDHA [4]; ratio IC50 hLDHB / IC50 hLDHA): 7.1
IC50 (recombinant human LDHA [4]; supplementary dose response curves, µM only on the axis label, read-out: IC50 (hLDHA inhibition curve)): 20 ± 0.6 µM

Oc1cc(O)c2c(c1)OC1(c3ccc(O)c(O)c3)CC2c2ccccc2O1 (racemic) [(±)-1]
IC50 (recombinant human LDHB [3]; [5]): 35.4 ± 0.8 µM
IC50 (recombinant human LDHA [1]): 73.1 ± 2.5 µM
Selectivity Rate (IC50 hLDHB/hLDHA) (recombinant human LDHA [1]): 0.5

— paper PMC10298284, “Synthesis and hLDH Inhibitory Activity of Analogues to Natural Products with 2,8-Dioxabicyclo[3.3.1]nonane Scaffold” (International Journal of Molecular Sciences, 2023)
